How the values were obtained:
[1] = system: NF-κB pathway in THP-1 dual cells; test: THP-1 Dual Reporter Assay, NF-κB pathway (SEAP reporter); format: cell-based; details: Homo sapiens, THP1-Dual, 18 h of stimulation, absorbance at 630 nm, read-out: THP1 Dual EC50 (μM) NFkB
Method: (§1) THP-1 Dual Reporter Assay
(§2) Compounds of the present invention were tested for their activity using THP-1 dual cells (Invivogen, cat no. thpd-nfis) allowing for simultaneous study of NF-κB pathway and the interferon regulatory factor (IRF) pathway. THP-1 dual cells contain luciferase reporter gene under the control of an ISG54 (interferon-stimulated gene) minimal promoter in conjunction with five interferon-stimulated response elements and a secreted embryonic alkaline phosphatase reporter gene under the control an IFN (interferon)-β minimal promoter fused to five copies of the NF-κB consensus transcriptional response element with three copies of the c-Rel binding site. Following 18 h of stimulation with STING agonist, medium was collected and transferred onto fresh cell culture plate. To verify activity of the IRF pathway, luminescence activity was measured with standard laboratory plate reader immediately after addition 10 μl of the medium to 50 μl of luminescence reagent (Invivogen, cat. No. rep-qlc2). To verify activity of NF-κB pathway, 20 μl of the medium was mixed with 80 μl of a detection medium (Invivogen, cat. No. rep-qb2) and incubated for 2 hours at 37° C. in a humidified atmosphere containing 5% CO2. Next, absorbance at 630 nm was recorded using standard laboratory plate reader.

[2] = system: interferon regulatory factor (IRF) pathway in THP-1 dual cells; test: THP-1 Dual Reporter Assay, IRF pathway (luciferase reporter); format: cell-based; details: Homo sapiens, THP1-Dual, 18 h of stimulation, luminescence
Method: as §1, §2

[3] = target: human STING (Homo sapiens, UniProt Q86WV6); test: Fluorescence Thermal Shift assay; format: binding; details: 50 μM compound; STING 0.1 mg/ml; 20 minutes preincubation; read-out: [hSTING] FTS, ΔTm [° C.] for 50 μM
Chain of human STING (Q86WV6 whole entry H232R): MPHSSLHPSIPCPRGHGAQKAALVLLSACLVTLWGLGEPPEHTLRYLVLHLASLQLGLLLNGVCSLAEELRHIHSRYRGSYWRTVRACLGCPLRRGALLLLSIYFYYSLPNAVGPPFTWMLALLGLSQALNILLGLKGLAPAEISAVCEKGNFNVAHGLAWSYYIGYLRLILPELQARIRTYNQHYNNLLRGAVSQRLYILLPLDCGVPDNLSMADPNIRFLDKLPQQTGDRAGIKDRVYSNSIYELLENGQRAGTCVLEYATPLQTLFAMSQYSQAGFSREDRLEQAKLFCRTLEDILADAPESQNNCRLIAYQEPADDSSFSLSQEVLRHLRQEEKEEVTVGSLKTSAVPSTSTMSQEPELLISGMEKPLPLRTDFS
Method: Fluorescence Thermal Shift Assay Compounds of the present invention were tested for binding to human STING in Fluorescence Thermal Shift assay. STING was preincubated with the compounds for 20 minutes in 50 mM Hepes, 150 mM NaCl, pH 7.5 in 16 μl volume, following by adding 4 μl of SyproOrange dye dilution (ThermoFisher, cat no. S-6651). Final STING concentration was 0.1 mg/ml. Thermal unfolding was performed in Real-Time PCR QuantStudio 6 Flex System (Applied Biosystems), from 25 to 99° C., with continuous ramp mode and ramp rate 0.033° C./s. The data were analyzed using Protein Thermal Shift Software (ThermoFisher). […] For example, ΔTm [° C.] of FTS assay for following examples are: […]

Structure (SMILES)	EC50 [1] [µM]	EC50 [2] [µM]	ΔTm at 50 µM [3] [°C]
COc1ccc(-c2ccc3c(=O)c(CN(CCCn4ccnc4)Cc4ccncc4)c(C)oc3c2)cc1 [Example 56, 3-({[3-(1H-imidazol-1-yl)propyl][(pyridin-4-yl)methyl]amino}methyl)-7-(4-methoxyphenyl)-2-methyl-4H-chromen-4-one]	≤ 10	≤ 10	> 2.5
COc1ccc(-c2cc3occ(CN(CCCn4ccnc4)Cc4ccncc4)c(=O)c3cc2F)cc1 [Example 42, 6-fluoro-3-({[3-(1H-imidazol-1-yl)propyl][(pyridin-4-yl)methyl]amino}methyl)-7-(4-methoxyphenyl)-4H-chromen-4-one]	≤ 10	≤ 10	> 2.5
COc1cc(CN(CCCn2cnc3cncnc32)Cc2cn(C)c3ccccc3c2=O)ccn1 [Example 89, 3-({[(2-methoxypyridin-4-yl)methyl][3-(9H-purin-9-yl)propyl]amino}methyl)-1-methyl-1,4-dihydroquinolin-4-one]	≤ 10	≤ 10	< 2.5
Cc1cc(CN(CCCn2cnc3ccccc32)Cc2cn(C)c3ccccc3c2=O)ccn1 [Example 100, 3-({[3-(1H-1,3-benzodiazol-1-yl)propyl][(2-methylpyridin-4-yl)methyl]amino}methyl)-1-methyl-1,4-dihydroquinolin-4-one]	≤ 10	≤ 10	> 2.5
COc1cc(CN(CCCn2cnc3ccccc32)Cc2coc3c(ccc4ccccc43)c2=O)ccn1 [Example 53, 3-({[3-(1H-1,3-benzodiazol-1-yl)propyl][(2-methoxypyridin-4-yl)methyl]amino}methyl)-4H-benzo[h]chromen-4-one]	≤ 10	≤ 10	> 2.5
Cc1oc2cc(Br)ccc2c(=O)c1CN(CCCc1cccnc1)Cc1ccncc1 [Example 64, 7-bromo-2-methyl-3-({[3-(pyridin-3-yl)propyl](pyridin-4-ylmethyl)amino}methyl)-4H-chromen-4-one]	≤ 10	≤ 10	> 2.5
COc1cc(CN(CCCc2cccnc2)Cc2c(C)oc3cc(N4CCOCC4)c(F)cc3c2=O)ccn1 [Example 77, 6-fluoro-3-({[(2-methoxypyridin-4-yl)methyl][3-(pyridin-3-yl)propyl]amino}methyl)-2-methyl-7-(morpholin-4-yl)-4H-chromen-4-one]	≤ 10	≤ 10	< 2.5
COc1cc(CN(CCCn2ccnc2)Cc2coc3cc(N4CCN(C)CC4)ccc3c2=O)ccn1 [Example 34, 3-({[3-(1H-imidazol-1-yl)propyl][(2-methoxypyridin-4-yl)methyl]amino}methyl)-7-(4-methylpiperazin-1-yl)-4H-chromen-4-one]	10 to 20	≥ 20	< 2.5
Cc1oc2cc(N3CCN(C)CC3)c(F)cc2c(=O)c1CN(CCCc1cccnc1)Cc1ccncc1 [Example 65, 6-fluoro-2-methyl-7-(4-methylpiperazin-1-yl)-3-({[3-(pyridin-3-yl)propyl][(pyridin-4-yl)methyl]amino}methyl)-4-chromen-4-one]	≤ 10	≤ 10	> 2.5
O=c1c(CN(CCCn2ccnc2)Cc2ccncc2)coc2c1ccc1ccccc12 [Example 7, 3-({[3-(1H-imidazol-1-yl)propyl](pyridin-4-ylmethyl)amino}methyl)-4H benzo[h]chromen-4-one]	≤ 10	≤ 10	> 2.5
O=c1c(CN(CCCn2cnc3ncccc32)Cc2ccncc2)coc2c1ccc1ccccc12 [Example 68, 3-{[(3-{1H-imidazo[4,5-b]pyridin-1-yl}propyl)(pyridin-4-ylmethyl)amino]methyl}-4H-benzo[h]chromen-4-one]	≤ 10	≤ 10	> 2.5
Cc1ccc2c(=O)c(CN(CCCn3ccnn3)Cc3ccncc3)coc2c1C [Example 14, 7,8-dimethyl-3-{[(pyridin-4-ylmethyl)[3-(1H-1,2,3-triazol-1-yl)propyl]amino]methyl}-4H-chromen-4-one]	10 to 20	10 to 20	> 2.5
COc1ccc(CCCN(Cc2ccncc2)Cc2c(C)oc3c(C)c(C)ccc3c2=O)cn1 [Example 66, 3-({[3-(6-methoxypyridin-3-yl)propyl](pyridin-4-ylmethyl)amino}methyl)-2,7,8-trimethyl-4H-chromen-4-one]	≤ 10	≤ 10	< 2.5
O=c1c(CN(CCCc2cccnc2)Cc2ccncc2)coc2c1ccc1ccccc12 [Example 28, 3-({[3-(pyridin-3-yl)propyl](pyridin-4-ylmethyl)amino}methyl)-4H-benzo[h]chromen-4-one]	≤ 10	≤ 10	> 2.5
Cn1cc(CN(CCCc2cccnc2)Cc2ccnc(Cl)c2)c(=O)c2ccccc21 [Example 90, 3-({[(2-chloropyridin-4-yl)methyl][3-(pyridin-3-yl)propyl]amino}methyl)-1-methyl-1,4-dihydroquinolin-4-one]	10 to 20	≤ 10	> 2.5
O=c1c(CN(CCCn2cnc3ccccc32)Cc2ccncc2)coc2ccccc12 [Example 17, 3-({[3-(1H-1,3-benzodiazol-1-yl)propyl](pyridin-4-ylmethyl)amino}methyl)-4H-chromen-4-one]	10 to 20	≤ 10	> 2.5
Cn1cc(CN(CCCn2ccnc2)Cc2ccncc2)c(=O)c2ccccc21 [Example 31, 3-({[3-(1H-imidazol-1-yl)propyl][(pyridin-4-yl)methyl]amino}methyl)-1-methyl-1,4-dihydroquinolin-4-one]	≥ 20	≥ 20	> 2.5
COc1cc(CN(CCCc2cccnc2)Cc2cn(C3CC3)c3cc(F)c(F)cc3c2=O)ccn1 [Example 95, 1-cyclopropyl-6,7-difluoro-3-({[(2-methoxypyridin-4-yl)methyl][3-(pyridin-3-yl)propyl]amino}methyl)-1,4-dihydroquinolin-4-one]	10 to 20	≤ 10	> 2.5
Cc1ccc2c(=O)c(CN(CCCn3ccnc3)Cc3ccncc3)coc2c1C [Example 5, 3-({[3-(1H-imidazol-1-yl)propyl](pyridin-4-ylmethyl)amino}methyl)-7,8-dimethyl-4H-chromen-4-one]	≤ 10	≤ 10	> 2.5
Cc1cc(CN(CCCn2ccnc2)Cc2coc3ccccc3c2=O)ccn1 [Example 25, 3-({[3-(1H-imidazol-1-yl)propyl][(2-methylpyridin-4-yl)methyl]amino}methyl)-4H-chromen-4-one]	≥ 20	10 to 20	< 2.5
O=c1c(CN(CCCn2ccnc2)Cc2ccncc2)coc2cc(Br)c(F)cc12 [Example 37, 7-bromo-6-fluoro-3-({[3-(1H-imidazol-1-yl)propyl][(pyridin-4-yl)methyl]amino}methyl)-4H-chromen-4-one]	≤ 10	≤ 10	> 2.5
COc1cc(CN(Cc2coc3c(ccc4ccccc43)c2=O)C(C)CCc2cccnc2)ccn1 (stereo not drawn) [Example 83, 3-({[(2-methoxypyridin-4-yl)methyl][4-(pyridin-3-yl)butan-2-yl]amino}methyl)-4H-benzo[h]chromen-4-one]	≤ 10	≤ 10	< 2.5

From patent US12162863B2, “Modulators of stimulator of interferon genes (STING)” (RYVU THERAPEUTICS S.A., priority 2018, dated 2024)
